# Measurements from patent publication US11612586B2, “Indole regulation of antigen presenting cells” (THE TEXAS A&M UNIVERSITY SYSTEM, priority 2016, dated 2023).
# Tests used:
# naïve CD4+CD25− T cells = assay: DC-T cell co-culture without cell contact (Transwell): Treg induction; assay type: cell-based, mouse; details: exogenous TGF-β added, 3 days
# IL-6 = IL-6 production in splenic CD11c+ DCs ex vivo; details: indole overnight, LPS or heat-killed S. typhimurium
# MHC-II and CD86 = details: BMDC, indole from day 0, 3, or 6, LPS stimulation
# [1] = tested on: Salmonella Pathogenicity Island-1 (SPI-1) genes; assay: Expression of Salmonella Pathogenicity Island-1 genes; assay type: cell-based, Salmonella Typhimurium
# nitric oxide (NO) = assay: Nitric oxide production in DC2.4 and BMDC (Griess reaction)
# Salmonella Typhimurium = assay: Colonization of mice by Salmonella exposed to indole; assay type: in vivo; details: Salmonella exposed to indole compared to solvent-treated controls
# Erk = assay: phospho-Erk signaling in BMDMs; assay type: cell-based, mouse
# Protocol: The PI3K/Akt and MAPK/Erk signaling pathways regulate many cellular processes including survival, apoptosis, growth, and cytokine production. […] Specifically, BMDMs were treated with indole (1 mM) or DMF control for 18 hours, then stimulated with LPS (10 ug/ml) or CpG (5 uM) for 30 minutes. Cells were stained for phospho-Akt or phospho-Erk and analyzed by flow cytometry.
# (§1) The inventors performed a series of assays where bone marrow derived macrophages (BMDMs), bone marrow derived dendritic cells (BMDCs), and splenic dendritic cells (splenic DCs), were exposed to a series of TDMMs, including indole, indole-3-acetate (I3AT), 5-hydroxyindole (5HI), and indole-3-pyruvate (I3P), as well as indole-3-carbinol (I3C; a plant derived compound) to be used for a positive control (1 mM for 24 hours). The BMDMs and BMDCs were stimulated with LPS for 4 hours and assayed at day 7 for expression of various pro-inflammatory cytokines. In a similar assay, the BMDMs and BMDCs were stimulated with LPS or CpG, respectively, for 15 minutes and assayed for pAKT and pERK signaling, which is a reflection of pro-inflammatory response.
# Stat3 = assay: IL-6 induced pSTAT3 signaling in splenic DCs; assay type: cell-based, mouse; details: splenic DCs, 1 mM TDMM 24 hours, IL-6 (10 ng/ml) 30 minutes
# Protocol: Briefly, flow cytometric analysis was performed on splenic DCs conditioned with the indicated TDMMs for 24 hours and then subsequently stimulated with 10 ng/ml IL-6 for 30 minutes.
# [2] = tested on: aldehyde dehydrogenase (ALDH); assay: Aldehyde dehydrogenase activity in BMDCs (Aldefluor); assay type: cell-based, mouse; details: indole 1 mM from day 3, Aldefluor
# Protocol: FIG. 13A: BMDCs were cultured from day 3 with indole (1 mM), retinoic acid (1 uM), or DMF control were assayed for aldehyde dehydrogenase (ALDH) activity using the Aldefluor commercial kit. The ALDH inhibitor, DEAB reagent, was included to control for background fluorescence. Aldefluor fluorescence as a measure of ALDH activity was analyzed by flow cytometry. Data is reported as percentage of Aldefluor positive DCs (left panel) and corresponding MFI values (right panel). Individual dots represent data from five independent experiments. FIG. 13B: Gene expression of aldh1a2 was assayed by real-time qPCR in day 7 BMDCs cultured with indole from day 3. Gene expression was normalized to 18 s ribosomal RNA. […]
# One possible explanation for these observations is that indole promotes retinoic acid availability to the DCs, thus inducing gut homing markers indirectly by providing substrate for a previously identified mechanism. To investigate this possibility, aldehyde dehydrogenase (ALDH) activity was analyzed via flow cytometry using the fluorescent ALDH substrate, Aldefluor. […]
# Activity of aldehyde dehydrogenase (ALDH) in individual BMDCs was measured using an Aldefluor staining kit (Stem Cell Technologies) according to the manufacturer's instructions with minor modifications. […] Subsequently, cells were stained with CD11c in cold Aldefluor assay buffer and then analyzed by flow cytometry.
# TNF = TNF production in BMDMs, intracellular staining, flow cytometry; assay type: cell-based, mouse
# Protocol: BMDMs were treated with indole or DMF control for 18 hours or 4 hours, followed by stimulation with LPS (2 ug/ml or 250 ng/ml) for 4 hours in the presence of Golgiplug. BMDMs were then stained for intracellular TNF or IL-12 and analyzed by flow cytometry.
# First, pro-inflammatory cytokine production in macrophages was investigated. […] In the DC study described herein, DCs were typically conditioned with indole during their development from bone marrow precursors in order to mimic the proximity of DC progenitor cells to indole in the intestinal microenvironment during development. […] BMDMs were treated for 18 hours with indole, followed by a 4 hour stimulation with either a very high (2 ug/ml) or low (250 ng/ml) dose of LPS.
# Additionally, to determine if recently arrived macrophage precursors might also be affected, BMDMs were next treated for just 4 hours with indole, followed by a […] stimulation with the same LPS concentrations.
# To address the question of indole and AhR dependence in macrophages, experiments using BMDMs derived from AhR-knockout mice were run alongside wild-type littermate controls. Specifically, flow cytometric analysis of BMDMs was performed on WT or AhR-KO mice and treated with indole or DMF control for 18 hours. BMDMs were stimulated for 4 hours with LPS (50 ng/ml) in the presence of Golgiplug, then stained for intracellular TNF (left panels) and IL-12 (right panels).
# as §1
# Bone marrow was harvested as described above and cultured at a density of 1×10^6 cells in 10 ml complete media supplemented with 10 ng/ml M-CSF (Peprotech) in 100 mm×15 mm petri dishes. Media with cytokine was replenished on day 3. Adherent and semi-adherent cells were recovered on day 7, plated, and treated with indole prior to downstream experiments.
# IL-10 = IL-10 production by BMDC cultures (ELISA); assay type: cell-based, mouse; details: indole-conditioned DCs
# Protocol: To determine whether this was a specific downregulation of pro-inflammatory cytokines, production of the canonical DC-produced anti-inflammatory cytokines, IL-10 and TGF-β, was also examined.
# Cytokine concentration in the supernatant of BMDC cultures was assessed using commercially available ELISA kits for IL-10 (Peprotech) and TGF-β (eBioscience) per the manufacturer's instructions.
smiles,measurement,setting,value
"c1ccc2[nH]ccc2c1 [Indole, indole]",Treg induction by conditioned DCs without cell contact over solvent controls,naïve CD4+CD25− T cells,did not enhance Treg skew
same,inhibition of IL-6 production,IL-6,≥ 2 fold
same,DC maturation (MHC-II and CD86 expression),MHC-II and CD86,did not alter DC maturation
same,expression of four SPI-1 genes involved in invasion,[1],decrease in expression
same,effect of short chain fatty acids on attenuation of SPI-1 gene expression,[1]; indole together with short chain fatty acids,synergistically enhanced
same,secretion of nitric oxide (NO),nitric oxide (NO),intact
same,competitiveness of Salmonella in colonizing mice,Salmonella Typhimurium,less competitive
same,pERK,"Erk; 1 mM TDMM 24 hours, LPS 1 ug/ml 15 minutes",↓
same,dampening of pErk signaling,"Erk; indole 1 mM 18 hours, LPS (10 ug/ml) or CpG (5 uM) 30 minutes",approximately 50%
same,"IL-6 induced pSTAT3 expression, CD4+ DCs",Stat3,↓↓
same,"IL-6 induced pSTAT3 expression, CD4− DCs",Stat3,↓↓
same,ALDH activity in DCs,[2],does not affect ALDH activity
same,reduction of TNF production,"TNF; BMDMs from WT or AhR-KO mice, 1 mM indole 18 hours, LPS 50 ng/ml 4 hours",approximately 2 fold
same,TNF,"TNF; BMDMs, 1 mM TDMM 24 hours, LPS 1 ug/ml 4 hours",↓↓↓
same,inhibition of TNF production,"TNF; BMDMs, 1 mM indole 18 hours, LPS 2 ug/ml or 250 ng/ml 4 hours",~2 fold
same,IL-10 production,IL-10,Neither IL-10 nor TGF-β production were affected
